Data as given in patent US9290485B2, “N-((6-amino-pyridin-3-yl)methyl)-heteroaryl-carboxamides” (NOVARTIS AG, priority 2010, dated 2016).

The compounds below were run against human plasma kallikrein (Homo sapiens (Human), UniProt P03952). Conditions: human plasma kallikrein 25 pM, substrate 0.5 uM, 1 hour pre-incubation at room temperature, read at t=60 min.
Chain of human plasma kallikrein (P03952 whole entry, looked up): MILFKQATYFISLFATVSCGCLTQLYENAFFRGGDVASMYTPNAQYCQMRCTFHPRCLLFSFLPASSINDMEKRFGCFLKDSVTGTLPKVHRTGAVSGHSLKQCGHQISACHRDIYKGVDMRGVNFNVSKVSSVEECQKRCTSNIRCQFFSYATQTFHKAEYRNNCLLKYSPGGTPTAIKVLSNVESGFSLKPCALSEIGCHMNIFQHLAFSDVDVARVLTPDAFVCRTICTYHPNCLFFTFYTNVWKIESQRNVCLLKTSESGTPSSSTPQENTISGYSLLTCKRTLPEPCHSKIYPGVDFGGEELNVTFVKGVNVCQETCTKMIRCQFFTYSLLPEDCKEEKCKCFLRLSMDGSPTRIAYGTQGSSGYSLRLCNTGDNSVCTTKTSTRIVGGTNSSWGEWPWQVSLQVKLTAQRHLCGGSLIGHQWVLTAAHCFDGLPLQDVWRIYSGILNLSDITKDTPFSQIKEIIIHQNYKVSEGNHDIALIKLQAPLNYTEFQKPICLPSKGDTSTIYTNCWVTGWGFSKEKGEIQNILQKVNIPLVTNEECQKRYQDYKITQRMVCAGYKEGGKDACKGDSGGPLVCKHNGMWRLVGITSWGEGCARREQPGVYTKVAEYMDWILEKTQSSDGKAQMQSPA
Chain of human plasma kallikrein (P03952 whole entry partner, looked up): as the sequence (P03952 whole entry, looked up) above

Going from `Cc1noc(-c2ccc(Cn3cc(C(=O)NCc4c(C)cc(N)nc4C)cn3)cc2)n1` [Example 91, N-((6-amino-2,4-dimethylpyridin-3-yl)methyl)-1-(4-(3-methyl-1,2,4-oxadiazol-5-yl)benzyl)-1H-pyrazole-4-carboxamide] to `Cc1cc(N)nc(C)c1CNC(=O)c1cnn(Cc2ccc(Cl)cc2)c1` [Example 96, N-((6-amino-2,4-dimethylpyridin-3-yl)methyl)-1-(4-chlorobenzyl)-1H-pyrazole-4-carboxamide], the IC50 rises from 133 nM to 291 nM (2.2-fold).

Compared with `Cc1cc(N)nc(C)c1CNC(=O)c1cnn(Cc2cccc(Cl)c2)c1` [Example 92, N-((6-amino-2,4-dimethylpyridin-3-yl)methyl)-1-(3-chlorobenzyl)-1H-pyrazole-4-carboxamide], `Cc1cc(N)nc(C)c1CNC(=O)c1cnn(Cc2cccc(C(N)=O)c2)c1` [Example 102, N-((6-amino-2,4-dimethylpyridin-3-yl)methyl)-1-(3-carbamoylbenzyl)-1H-pyrazole-4-carboxamide] is 4.6-fold higher in IC50: 867 nM for the first, 4000 nM for the second. The first is the more potent here.

Going from `Cc1cc(N)nc(C)c1CNC(=O)c1cnn(Cc2ccc(F)cc2F)c1` [Example 93, N-((6-amino-2,4-dimethylpyridin-3-yl)methyl)-1-(2,4-difluorobenzyl)-1H-pyrazole-4-carboxamide] to `Cc1cc(N)nc(C)c1CNC(=O)c1cnn(Cc2ccc3c(c2)OCO3)c1` [Example 103, N-((6-amino-2,4-dimethylpyridin-3-yl)methyl)-1-(benzo[d][1,3]dioxol-5-ylmethyl)-1H-pyrazole-4-carboxamide], the IC50 falls from 674 nM to 299 nM (2.3-fold). The second is the more potent here.

First: Cc1cc(N)nc(C)c1CNC(=O)c1cnn(Cc2ccc(OCc3ccccc3)cc2)c1 [Example 94, N-((6-amino-2,4-dimethylpyridin-3-yl)methyl)-1-(4-(benzyloxy)benzyl)-1H-pyrazole-4-carboxamide]
Second: Cc1cc(N)nc(C)c1CNC(=O)c1cnn(Cc2cccc(-c3ccccc3)c2)c1 [Example 115, N-((6-amino-2,4-dimethylpyridin-3-yl)methyl)-1-(biphenyl-3-ylmethyl)-1H-pyrazole-4-carboxamide]
The IC50 of the first is 1.6-fold lower: 2.1 nM for the first, 3.3 nM for the second. The first is the more potent here.

`Cc1cc(N)nc(C)c1CNC(=O)c1cnn(Cc2cccc3c2OCCCO3)c1` [Example 95, N-((6-amino-2,4-dimethylpyridin-3-yl)methyl)-1-((3,4-dihydro-2H-benzo[b][1,4]dioxepin-6-yl)methyl)-1H-pyrazole-4-carboxamide] and `Cc1cc(N)nc(C)c1CNC(=O)c1cnn(Cc2noc3ccccc23)c1` [Example 106, N-((6-amino-2,4-dimethylpyridin-3-yl)methyl)-1-(benzo[d]isoxazol-3-ylmethyl)-1H-pyrazole-4-carboxamide] are within 1.5-fold of each other in IC50: 485 nM for the first, 415 nM for the second.

Compared with `Cc1nc(Cn2cc(C(=O)NCc3c(C)cc(N)nc3C)cn2)cs1` [Example 97, N-((6-amino-2,4-dimethylpyridin-3-yl)methyl)-1-((2-methylthiazol-4-yl)methyl)-1H-pyrazole-4-carboxamide], `Cc1cc(N)nc(C)c1CNC(=O)c1cnn(Cc2cccnc2)c1` [Example 98, N-((6-amino-2,4-dimethylpyridin-3-yl)methyl)-1-(pyridin-3-ylmethyl)-1H-pyrazole-4-carboxamide] is 2-fold higher in IC50: 1900 nM for the first, 3800 nM for the second. The first is the more potent here.

Compared with `Cc1cc(N)nc(C)c1CNC(=O)c1cnn(C(C)c2ccccc2)c1` (stereo not shown) [Example 100, N-((6-amino-2,4-dimethylpyridin-3-yl)methyl)-1-(1-phenylethyl)-1H-pyrazole-4-carboxamide], `Cc1cc(N)nc(C)c1CNC(=O)c1cnn(Cc2nc3ccccc3s2)c1` [Example 105, N-((6-amino-2,4-dimethylpyridin-3-yl)methyl)-1-(benzo[d]thiazol-2-ylmethyl)-1H-pyrazole-4-carboxamide] is 3.8-fold lower in IC50: 642 nM for the first, 168 nM for the second. The second is the more potent here.

First: Cc1cc(N)nc(C)c1CNC(=O)c1cnn(Cc2ccc3c(c2)nnn3C)c1 [Example 101, N-((6-amino-2,4-dimethylpyridin-3-yl)methyl)-1-((1-methyl-1H-benzo[d][1,2,3]triazol-5-yl)methyl)-1H-pyrazole-4-carboxamide]
Second: Cc1cc(N)nc(C)c1CNC(=O)c1cnn(Cc2ccc(S(=O)(=O)N(C)C)cc2)c1 [Example 126, N-((6-amino-2,4-dimethylpyridin-3-yl)methyl)-1-(4-(N,N-dimethylsulfamoyl)benzyl)-1H-pyrazole-4-carboxamide]
The IC50 of the first is 9.6-fold lower: 70 nM for the first, 670 nM for the second. The first is the more potent here.

Compared with `Cc1cc(N)nc(C)c1CNC(=O)c1cn(Cc2ccccc2C#N)c2ccccc12` [Example 107, N-((6-amino-2,4-dimethylpyridin-3-yl)methyl)-1-(2-cyanobenzyl)-1H-indole-3-carboxamide], `Cc1cc(N)nc(C)c1CNC(=O)c1cn(Cc2ccccc2)c2ccccc12` [Example 108, N-((6-amino-2,4-dimethylpyridin-3-yl)methyl)-1-benzyl-1H-indole-3-carboxamide] is 2.3-fold lower in IC50: 1800 nM for the first, 798 nM for the second.

First: Cc1cc(N)nc(C)c1CNC(=O)c1cc(C)n(Cc2ccccc2)c1C [Example 109, N-((6-amino-2,4-dimethylpyridin-3-yl)methyl)-1-benzyl-2,5-dimethyl-1H-pyrrole-3-carboxamide]
Second: Cc1cc(N)nc(C)c1CNC(=O)c1n[nH]c(Cc2ccccc2)n1 [Example 113, N-((6-amino-2,4-dimethylpyridin-3-yl)methyl)-5-benzyl-1H-1,2,4-triazole-3-carboxamide]
The IC50 of the first is 4.5-fold lower: 1300 nM for the first, 5800 nM for the second. The first is the more potent here.

`Cc1cc(N)nc(C)c1CNC(=O)c1cnn(Cc2ccc(CN3CCOCC3)cc2)c1` [Example 110, N-((6-amino-2,4-dimethylpyridin-3-yl)methyl)-1-(4-(morpholinomethyl)benzyl)-1H-pyrazole-4-carboxamide] and `Cc1cc(N)nc(C)c1CNC(=O)c1cnn(Cc2ccc(CN3CCCC3)cc2)c1` [Example 118, N-((6-amino-2,4-dimethylpyridin-3-yl)methyl)-1-(4-(pyrrolidin-1-ylmethyl)benzyl)-1H-pyrazole-4-carboxamide] are within 1.5-fold of each other in IC50: 249 nM for the first, 183 nM for the second.

Going from `Cc1cc(N)nc(C)c1CNC(=O)c1cnn(Cc2ccc(C(=O)NC3CCS(=O)(=O)C3)cc2)c1` (stereo not shown) [Example 111, 1-[4-(1,1-Dioxo-tetrahydro-1lambda*6*-thiophen-3-ylcarbamoyl)-benzyl]-1H-pyrazole-4-carboxylic acid (6-amino-2,4-dimethyl-pyridin-3-ylmethyl)-amide] to `Cc1cc(N)nc(C)c1CNC(=O)c1cnn(Cc2ccc(NC(=O)NC3CC3)cc2)c1` [Example 112, N-((6-amino-2,4-dimethylpyridin-3-yl)methyl)-1-(4-(3-cyclopropylureido)benzyl)-1H-pyrazole-4-carboxamide], the IC50 falls from 2100 nM to 229 nM (9.2-fold). The second is the more potent here.

Compared with `Cc1cc(N)nc(C)c1CNC(=O)c1cnn(Cc2ccc(-c3ccncc3)cc2)c1` [Example 114, N-((6-amino-2,4-dimethylpyridin-3-yl)methyl)-1-(4-(pyridin-4-yl)benzyl)-1H-pyrazole-4-carboxamide], `Cc1cc(N)nc(C)c1CNC(=O)c1cnn(Cc2ccc(C(=O)Nc3ccn(C)n3)cc2)c1` [Example 122, N-((6-amino-2,4-dimethylpyridin-3-yl)methyl)-1-(4-(1-methyl-1H-pyrazol-3-ylcarbamoyl)benzyl)-1H-pyrazole-4-carboxamide] is 25-fold higher in IC50: 30 nM for the first, 752 nM for the second. The first is the more potent here.

Compared with `Cc1cc(N)nc(C)c1CNC(=O)c1cnn(Cc2cccc(S(=O)(=O)N3CCOCC3)c2)c1` [Example 116, N-((6-amino-2,4-dimethylpyridin-3-yl)methyl)-1-(3-(morpholinosulfonyl)benzyl)-1H-pyrazole-4-carboxamide], `Cc1cc(N)nc(C)c1CNC(=O)c1cnn(Cc2ccc(C(=O)N3CCOCC3)cc2)c1` [Example 121, N-((6-amino-2,4-dimethylpyridin-3-yl)methyl)-1-(4-(morpholine-4-carbonyl)benzyl)-1H-pyrazole-4-carboxamide] is 1.9-fold higher in IC50: 197 nM for the first, 369 nM for the second.

Compared with `Cc1cc(N)nc(C)c1CNC(=O)c1cnn(Cc2cccc(C(=O)Nc3ccccc3)c2)c1` [Example 117, N-((6-amino-2,4-dimethylpyridin-3-yl)methyl)-1-(3-(phenylcarbamoyl)benzyl)-1H-pyrazole-4-carboxamide], `Cc1cc(N)nc(C)c1CNC(=O)c1cnn(Cc2cccc(C(=O)N3CCCCC3)c2)c1` [Example 119, N-((6-amino-2,4-dimethylpyridin-3-yl)methyl)-1-(3-(piperidine-1-carbonyl)benzyl)-1H-pyrazole-4-carboxamide] is 1.9-fold higher in IC50: 152 nM for the first, 289 nM for the second. The first is the more potent here.

Compared with `Cc1cc(N)nc(C)c1CNC(=O)c1n[nH]c([C@@H](N)c2ccccc2)n1` [Example 123, (S)-5-(amino(phenyl)methyl)-N-((6-amino-2,4-dimethylpyridin-3-yl)methyl)-1H-1,2,4-triazole-3-carboxamide], `Cc1cc(N)nc(C)c1CNC(=O)c1nc(Cc2ccc(-c3ccccc3)cc2)n[nH]1` [Example 124, N-((6-amino-2,4-dimethylpyridin-3-yl)methyl)-3-(biphenyl-4-ylmethyl)-1H-1,2,4-triazole-5-carboxamide] is 220-fold lower in IC50: 15800 nM for the first, 71 nM for the second. The second is the more potent here.

Compared with `Cc1cc(N)nc(C)c1CNC(=O)c1nc(Cc2ccc(Oc3ccccc3)cc2)n[nH]1` [Example 125, N-((6-amino-2,4-dimethylpyridin-3-yl)methyl)-3-(4-phenoxybenzyl)-1H-1,2,4-triazole-5-carboxamide], `Cc1cc(N)nc(C)c1CNC(=O)c1ccn(S(=O)(=O)c2ccc(-c3ccccc3)cc2)c1` [Example 127, N-((6-amino-2,4-dimethylpyridin-3-yl)methyl)-1-(biphenyl-4-ylsulfonyl)-1H-pyrrole-3-carboxamide] is 2.2-fold lower in IC50: 36 nM for the first, 16 nM for the second. The second is the more potent here.

`Cc1cc(N)nc(C)c1CNC(=O)c1ccn(S(=O)(=O)c2ccc(Cl)s2)c1` [Example 128, N-((6-amino-2,4-dimethylpyridin-3-yl)methyl)-1-(5-chlorothiophen-2-ylsulfonyl)-1H-pyrrole-3-carboxamide] and `COc1cccc(S(=O)(=O)n2ccc(C(=O)NCc3c(C)cc(N)nc3C)c2)c1` [Example 129, N-((6-amino-2,4-dimethylpyridin-3-yl)methyl)-1-(3-methoxyphenylsulfonyl)-1H-pyrrole-3-carboxamide] are within 1.5-fold of each other in IC50: 301 nM for the first, 244 nM for the second.

Compound `Cc1cc(N)nc(C)c1CNC(=O)c1ccn(S(=O)(=O)c2ccc3c(c2)N(C)CCO3)c1` [Example 130, N-((6-amino-2,4-dimethylpyridin-3-yl)methyl)-1-(4-methyl-3,4-dihydro-2H-benzo[b][1,4]oxazin-6-ylsulfonyl)-1H-pyrrole-3-carboxamide] has an IC50 of 67 nM.
